# Laboratory results reported in US10456434B2, “Extracts obtained from cell line cultures from plants belonging to the Oleaceae family (e.g. Syringa vulgaris), their preparation and use” (CRODA ITALIANA S. P. A., priority 2005, dated 2019).
# How the values were obtained:
# white blood cells = assay: PMA-stimulated white blood cell chemiluminescence; type: cell-based; conditions: Homo sapiens; 10^6 WBC, PMA 10 nM; read-out: White blood cell chemiluminescence (IC50 mg/ml)
# Procedure: Anti-inflammatory activity has been assessed by measuring luminol dependent chemiluminescence generated by free radicals released from whole blood and from white blood cells. The assay has been performed using the following protocol: 10 μl of fresh human blood is mixed with 0.980 ml of Hanks saline solution containing 5×10^−5 M luminol and the test sample (at various concentrations). The chemiluminescent response is recorded continuously for 30 minutes at a temperature of 37° C. The results are expressed as IC50 (mg/ml), i.e. as the minimum sample, concentration inhibiting chemiluminescence by 50% with respect to the control. To isolate white blood cells (WBC) from whole blood one proceeds in the following manner: 1 ml of fresh blood is layered onto a Hipaque gradient (p=1.119) and centrifuged at 250×g for 60 minutes at room temperature. Following centrifugation, the pellet containing the white blood cells is washed twice, using a large volume of cold Hanks saline solution. Finally, the washed WBCs are resuspended in 01 ml di HBSS containing foetal calf serum. 10^6 WBC are added to a chemiluminometer cuvette. 10 μl of PMA (final concentration equal to 10 nM) are added to induce the formation of free radicals. The chemiluminescent response is recorded continuously for 30 minutes at a temperature of 37° C. […]
# platelets [1] = assay: ADP induced platelet aggregation in platelet rich plasma; type: cell-based, rabbit; conditions: 1.0 mg/ml
# Procedure: (§1) Platelet enriched rabbit plasma has been used to assess the platelet anti-aggregating and disaggregating properties of Syringa vulgaris Extract 1, verbascoside and isoverbascoside. Platelet rich plasma has been obtained from rabbit venous blood by mixing it with a 3.8% sodium citrate solution (9:1 v/v). The solution has then been centrifuged at 460×g for 20 minutes. The supernatant has been collected and immediately used for the aggregation assays. Platelet aggregation has been recorded using a Chronolog “Ionised calcium platelet aggregometer” (Chrono-log Co., USA). All measurements have been performed at 37° C. with continuous stirring. […] Then 10 μl of a solution of ADP (final concentration—10 μm) has been added and the luminous transmittance continuously recorded. The results are expressed as the DÒ/DÒÊ ratio, where DÒÊ and DÒ are the luminous transmittance values, in the absence and presence of extract respectively. Platelet disaggregation (the disappearance of pre formed aggregates) has been determined using the same luminous transmittance curve 10 minutes following the addition of ADP. The results are expressed as the DR/DRk ratio, where DRk and DR, are the luminous transmittance in the absence and presence of extract. […]
# platelets [2] = assay: Platelet disaggregation 10 minutes after ADP; type: cell-based, rabbit; conditions: 1.0 mg/ml
# Procedure: as §1
# [3] = Metal chelating activity (spectrophotometric), Fe2+; type: binding; conditions: chelation equilibrium constant, calculated for a pure phenylpropanoid
# Excerpt: (§2) The chelating activities of Syringa vulgaris extracts, verbascoside and isoverbascoside in relation to Fe^2+, Fe^3+, Cu^2+ and Ni^2+ metal ions has been determined by means of spectrophotometric measurements using a Shimadzu 1770 UV spectrophotometer. The activities of chelating agents depends on the association constant (equilibrium) of their reactions with the metals according to the following reaction:
# (§3) [formula] wherein Keq is the equilibrium constant equal to the ratio of concentrations at equilibrium of a complex and product of equilibrium concentrations of metal ions and a chelator:
# (§4) [formula] The method used for determining chelating activity is well documented in the literature (Korkina L G, Afarras'er IB. Antioxidant and chelating properties of flavonoids. Adv. Pharmacol., 1997, 38:151-63). The results are expressed as Keg (M^−1) calculated for a pure phenylpropanoid. This way the chelating activity against ferrous (Fe II), ferric (Fe III), copper (Cu II) and nickel ions has been calculated.
# [4] = Metal chelating activity (spectrophotometric), Fe3+; type: binding; conditions: chelation equilibrium constant, calculated for a pure phenylpropanoid
# Excerpt: as §2, §3, §4
# [5] = Metal chelating activity (spectrophotometric), Cu2+; type: binding; conditions: chelation equilibrium constant, calculated for a pure phenylpropanoid
# Excerpt: as §2, §3, §4
# [6] = Metal chelating activity (spectrophotometric), Ni2+; type: binding; conditions: chelation equilibrium constant, calculated for a pure phenylpropanoid
# Excerpt: as §2, §3, §4
# tyrosinase [7] = assay: Tyrosinase inhibition, oxidation of L-tyrosine to L-DOPA; type: biochemical; conditions: 250 μg/ml
# Excerpt: (§5) The enzyme tyrosinase catalyses the reactions leading to melanin biosynthesis from tyrosine. […] Substances inhibiting tyrosinase activity produce clearing/bleaching effect on the skin, since they block melanin synthesis. The method used to determine the inhibition of tyrosinase activity in the oxidation reaction of L-tyrosine to L-DOPA is that described in Kim et al. […] Biol. Pharm. Bull. 28(2), 323-327, 2005). The method applied for determination of the inhibition of tyrosinase activity in the conversion of L-DOPA to DOPAquinone is that described in Masamoto et al. (Mushroom tyrosinase inhibitory activity of esculetin isolated from seeds of Euphorbia lathyris L. Biosci. Biotechnol. Biochem., 67(3), 631-634, 2003).
# tyrosinase [8] = assay: Tyrosinase inhibition, conversion of L-DOPA to DOPAquinone; type: biochemical, Mushroom; conditions: 100 μg/ml
# Excerpt: as §5
# [9] = test system: Malassezia furfur ST 8036; assay: Multiple dilution antimycotic assay, Malassezia furfur; type: cell-based; conditions: assayed at 0.625-5 mg/ml
# Procedure: With the aim of identifying any potential antifungal activity in the Syringa vulgaris extracts, microbiological assays have been prepared, generally known as multiple dilution assays. Such assays have been performed using the following fungal strains: Trycophyton rubrum ATCC 28188 and Malassezia furfur ST 8036. Syringa vulgaris Extracts 1 and 2, verbascoside and isoverbascoside have been assayed at concentrations of […], 1.25 mg/ml, 2.5 mg/ml and 5 mg/ml. The fungal strains used for testing have been inoculated into culture-broth (in Tryptone soy broth medium, for Malassezia furfur the culture medium has been supplemented with 2 ml/100 ml of olive oil) containing Syringa vulgaris extracts 1 and 2, verbascoside and isoverbascoside at the concentrations described above. In parallel with these tests, culture broths containing the microbial strain alone have been prepared (controls). The culture-broths have, been incubated at 30° C. for a period of 28 days. Samples of the various culture-broths have been taken at 0, 7, 14, 21 and 28 days, with the aim of counting the number of CFU/ml in relation to the various fungal strains, by plating the cultures on solid medium. A certain number of serial dilutions have been prepared for each sample in order to determine the fungal load of each culture-broth. Each dilution has been assayed in triplicate on solid medium. […]
IC50 (white blood cells) [mg/mL],Test L-tyrosine-DOPA inhibitory activity (%) (tyrosinase [7]),Test LDOPA-DOPAquinone inhibitory activity (%) (tyrosinase [8]),SMILES,Aggregation (% with respect to control) (platelets [1]) [%],Disaggregation (% with respect to control) (platelets [2]) [%],"Fe^2+ (Keq, M^−1) [3] [M⁻¹]","Fe^3+ (Keq, M^−1) [4] [M⁻¹]","Cu^2+ (Keq, M^−1) [5] [M⁻¹]","Ni^2+ (Keq, M^−1) [6] [M⁻¹]",antimycotic activity towards Malassezia furfur (in words) [9]
0.25,10.9,10,"CC1OC(OC2C(O)C(COC(=O)C=Cc3ccc(O)c(O)c3)OC(OCCc3ccc(O)c(O)c3)C2O)C(O)C(O)C1O [Isoverbascoside, b-(3,4-dihydroxyphenyl)-ethyl-O-α-L-ramnopyranosyl(1″-3′)-b-D-(6′-O-caffeoil)glucopyranoside]",25 ± 6,75 ± 21,460000 ± 120000,130000 ± 40000,130000 ± 60000,1398 ± 362,activity comparable to Extract 1
0.23,19.6,20.6,"C[C@@H]1O[C@@H](O[C@@H]2[C@@H](O)[C@H](OCCc3ccc(O)c(O)c3)O[C@H](CO)[C@H]2OC(=O)/C=C/c2ccc(O)c(O)c2)[C@H](O)[C@H](O)[C@H]1O [Verbascoside, b-(3,4-dihydroxyphenyl)-ethyl-O-α-L-ramnopyranosyl (1″-3′)-b-D-(4′-O-caffeoil)-glucopyranoside]",24 ± 6,73 ± 21,450000 ± 110000,120000 ± 50000,120000 ± 40000,1427 ± 319,activity comparable to Extract 1
